Assay results as given in US6217875A, “Inhibitors of lipoxygenase” (priority 1997, dated 2001).
Entries after “also recorded” stand apart in the source; their conditions may differ. Where two headings read alike, the source gives them in different places.

Experiments:
[1] = biological target: T1, 5-lipoxygenase (Rattus norvegicus, UniProt P12527); assay: Test of 5-Lipoxygenase Inhibitory Activity (rat PMNL enzyme, radiolabelled arachidonic acid, TLC); format: biochemical, Wistar-King rats
T1 construct: The supernatant was used as the enzyme solution of 5-lipoxygenase; from tissue; host or cells: peritoneal polymorphonuclear leukocytes (PMNL) of glycogen-injected Wistar-King rats, homogenate supernatant
T1 sequence (P12527 1-673): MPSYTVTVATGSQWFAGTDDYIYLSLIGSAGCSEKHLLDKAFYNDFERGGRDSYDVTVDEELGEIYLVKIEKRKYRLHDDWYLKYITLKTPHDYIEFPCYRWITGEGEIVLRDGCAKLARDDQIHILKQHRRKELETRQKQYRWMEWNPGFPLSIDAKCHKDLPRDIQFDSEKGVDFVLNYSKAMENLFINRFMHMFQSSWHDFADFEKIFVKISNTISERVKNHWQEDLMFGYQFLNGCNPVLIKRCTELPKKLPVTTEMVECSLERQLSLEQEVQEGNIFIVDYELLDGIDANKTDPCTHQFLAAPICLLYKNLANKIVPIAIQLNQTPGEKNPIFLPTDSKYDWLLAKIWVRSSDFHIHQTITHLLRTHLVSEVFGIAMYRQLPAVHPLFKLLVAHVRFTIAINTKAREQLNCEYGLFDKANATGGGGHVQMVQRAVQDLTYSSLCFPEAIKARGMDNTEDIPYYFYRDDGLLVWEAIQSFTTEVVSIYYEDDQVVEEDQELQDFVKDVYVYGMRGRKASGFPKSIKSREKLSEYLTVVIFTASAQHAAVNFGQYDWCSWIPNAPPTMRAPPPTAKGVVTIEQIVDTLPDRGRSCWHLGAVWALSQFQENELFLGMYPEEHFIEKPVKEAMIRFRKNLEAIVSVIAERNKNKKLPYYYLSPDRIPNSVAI
Description: (1) Formation of Enzyme Solution of 5-Lipoxygenase
Peritoneal polymorphonuclear leukocytes (PMNL) were prepared from normal Wistar-King rats (150-400 g) injected intraperitoneally with 5% (w/v) glycogen (20 mL/kg). A suspension in potassium phosphate buffer (50 mM, pH 7.4) was homogenized and centrifuged. The supernatant was used as the enzyme solution of 5-lipoxygenase.
(2) Measurement of Inhibitory Activity Against 5-Lipoxygenase
0.02 mL Of enzyme solution (2 mg protein/mL) and [1l-^14 C] arachidonic acid ([…]) were incubated with each testing solution (0.02 mL) and Ca^2+ and ATP at 37° C. for 5 min.
After incubation at 37° C. for 5 min, the reaction was terminated by adding 0.2 mL of 0.5 N formic acid, and the metabolite was extracted by 3 mL of ethyl acetate.
Then the extracted solution was subjected to thin-layer chromatography (TLC) and developed with ether/petroleum ether/acetic acid (50:50:1, v/v) at 4° C. The radioactive metabolites generated by 5-lipoxygenase were detected and quantified using autoradiography. The inhibitory activity on 5-lipoxygenase was measured and expressed as a percentage of the control.

[2] = test system: lipoxygenase; assay: Inhibition of lipoxygenase enzyme activity (general statement); format: biochemical; conditions: enzyme not given
[3] = test system: TPA-induced inflammation to the ears of mice; conditions: skin, 0.5 mg/ear; already reported data; cited from earlier work
[4] = test system: oxazolone-induced inflammation in the ears of mice; conditions: skin, 1.0 mg/ear; already reported data; cited from earlier work
[5] = test system: TPA-induced inflammation to the ears of mice; assay: Regulating inflammatory reaction against TPA-induced inflammation to the ears of mice, application to the skin; format: in vivo, mice (ICR); conditions: for Regulating Coefficient: TPA 0.8 μg/20 μl/ear, after 4 hours
Description: (§1) (1) Application to the Skin
Test solutions for Embodiment 1, 3 and 4 were prepared and applied to the right ears of mice (ICR, 5 weeks old, Clair) by adding acetone solution of TPA (0.8 μg/20 μl/ear).

[6] = test system: oxazolone-induced inflammation in the ears of mice; assay: Allergy control test against oxazolone-induced inflammation in the ears of mice, application to the skin; format: in vivo, mice (I.C.R)
Description: As described in this section, an allergy control test of oxazolone-induced inflammation to the ears of mice was conducted.
as §1
Oxazolone solution in ethanol (500 μg/100 μl) was applied to the abdominal region of mice (I.C.R, 5 weeks old, Clair), that had been shaved by hair clippers under an anesthetic of Nembutal (Immunization).
After 5 days of immunization, oxazolone solution in acetone, containing a prescribed amount of the sample being tested (Embodiment 1), was applied to the right ears of the mice (Challenge).
Also, as a comparison, data on NDGA (Comparison 7), ketoprophen (Comparison 8), phenidone (Comparison 9) and mepiramine (Comparison 10) which had already been reported, were listed in Table 3.

[7] = test system: 12-lipoxygenase; assay: Test of 12-Lipoxygenase Inhibitory Activity (rat platelet enzyme, radiolabelled arachidonic acid, TLC); format: biochemical, Wistar-King rats
Description: A test of the substances' effectiveness as inhibitors of the enzyme activity of 12-lipoxygenase was conducted for Embodiment 1 to 4.
(1) Formation of Enzyme Solution of 12-Lipoxygenase
Blood was collected from normal Wistar-King rats (150-400 g) and 0.5 mM of EDTA was added as anti-coagulant. The centrifuged supernatant (1,200 rpm for 10 min.) was again centrifuged at 3,000 rpm for 10 min. The deposited platelets were washed by 25 mM Tris/HCl buffer (pH 7.4) 1 mM EDTA /130 mM NaCl. The suspension of platelets in 1 mM EDTA was homogenized and used as an enzyme solution of 12-lipoxygenase.
(2) Measurement of Inhibitory Activity of 12-Lipoxygenase
Four to six testing solutions with different levels of concentration were prepared for Embodiment 1 to 4. 0.13 mL of enzyme solution (2 mg protein/mL) and [1-^14 C] arachidonic acid ([…]) were incubated with a testing solution (0.02 mL) at 37° C. for 5 min.
After incubation at 37° C. for 5 min., the reaction was terminated by adding 0.2 mL of 0.5 N formic acid, and the metabolite was extracted by adding 3 mL of ethyl acetate. […] The radioactive metabolites of 12 lipoxygenase were detected and quantified using autoradiography. The inhibitory activity of 12-lipoxygenase was measured and expressed as a percentage of the control.

## O=C(/C=C/c1ccc(O)c(O)c1)O[C@H](Cc1ccc(O)c(O)c1)C(=O)O [Comparison 1, rosemarinic acid, reference compound]
[1]
  IC50: 6.2 µM
[2]
  Inhibition of lipoxygenase enzyme activity (in words): strongly inhibit lipoxygenase enzyme activity

## COC(=O)[C@@H](Cc1ccc(O)c(O)c1)OC(=O)/C=C/c1ccc(O)c(O)c1 [Comparison 2, rosemarinic acid methyl ester, reference compound]
[1]; rat PMNL enzyme, 37° C., 5 min
  IC50: 0.6 µM
[2]
  Inhibition of lipoxygenase enzyme activity (in words): strongly inhibit lipoxygenase enzyme activity

## O=C(O)/C=C/c1ccc(O)c(O)c1 [Comparison 5, caffeic acid, reference compound]
[1]
  IC50: 72 µM

## CC(Cc1ccc(O)c(O)c1)C(C)Cc1ccc(O)c(O)c1 (stereo not shown) [Comparison 7, NDGA]
[3]
  Regulating Coefficient: 40%
[4]
  Regulating Coefficient: 38%

## CC(C(=O)O)c1cccc(C(=O)c2ccccc2)c1 (stereo not shown) [Comparison 8, ketoprophen]
[4]
  Regulating Coefficient: 32%

## O=C1CCN(c2ccccc2)N1 [Comparison 9, phenidone]
[4]
  Regulating Coefficient: 44%

## COc1ccc(CN(CCN(C)C)c2ccccn2)cc1 [Comparison 10, mepiramine]
[4]
  Regulating Coefficient: 38%

## O=c1cc(-c2ccc(O)c(O)c2)oc2cc(O)cc(O)c12 [Embodiment 1, luteolin]
[5]; 0.15 mg/ear
  Regulating Coefficient: 85%
[5]; 0.3 mg/ear
  Regulating Coefficient: 100%
[5]; in words
  Regulating effect against inflammation (in words): significant regulating effect against inflammation; also recorded: anti-inflammatory action, which correlated with the concentration of luteolin
[6]; 0.3 mg/ear, 48 hours after challenge
  Regulating Coefficient: 52%
[6]
  Anti-allergic action (in words): higher regulating coefficient for a smaller amount of application against Comparisons 7 to 10
[6]; listed as luteolin
  Anti-allergic action (in words): significant anti-allergic action
[7]
  Inhibitory activity against 12-lipoxygenase (in words): very strong inhibitory activity, similar to that against 5-lipoxygenase
[1]; in words
  Inhibitory activity against 5-lipoxygenase (in words): significant 5-LO inhibitory activity; also recorded: stronger inhibitory activity than that of Comparison 1 (rosemarinic acid) and Comparison 2 (rosemarinic acid methyl ester)
[1]; rat PMNL enzyme, 37° C., 5 min
  IC50: 0.1 µM
[2]
  Inhibition of lipoxygenase enzyme activity (in words): strongly inhibit lipoxygenase enzyme activity; also recorded: outstanding inhibitory activity

## COc1cc(-c2cc(=O)c3c(O)cc(O)cc3o2)ccc1O [Embodiment 2, chrysoeriol]
[2]
  Inhibition of lipoxygenase enzyme activity (in words): strongly inhibit lipoxygenase enzyme activity; also recorded: lesser inhibitory activity

## O=c1cc(-c2ccc(O)cc2)oc2cc(O)cc(O)c12 [apigenin]
[2]
  Inhibition of lipoxygenase enzyme activity (in words): strongly inhibit lipoxygenase enzyme activity
